Data: patent publication US4713445A, “Renin inhibitors and treatments using them” (priority 1983, dated 1987)
*1 amine or outer side, *2 acyl side, *3 side chain or, on linkers, in order; H or OH if unused. Where a SMILES comes first, the peptide text is derived from it. Where no end group is shown, it is not given here. [ ]: non-standard residue; d: D form. The star is where a group is joined. Leuψ(CH2NH)ValIleHisOH = CC[C@H](C)[C@H](NC(=O)[C@@H](NC[C@H](CC(C)C)N*)C(C)C)C(=O)N[C@@H](Cc1c[nH]cn1)C(=O)O; X3 = CC[C@H](C)[C@H](NC(=O)[C@@H](NC[C@H](CC(C)C)N*)C(C)C)C(=O)N[C@@H](Cc1ccc(O)cc1)C(=O)O; X5 = CC(C)C[C@@H](CN[C@H](C(=O)N[C@@H](Cc1c[nH]cn1)C(=O)NCCCCCN)C(C)C)N*; X2 = CC(C)C[C@@H](CN[C@H](C(=O)N[C@@H](Cc1c[nH]cn1)C(=O)NCCCN)C(C)C)N*; X1 = CC(C)C[C@H](N[*:1])[C@@H](O)C[C@H](C(=O)[*:2])C(C)C; X4 = CC(C)C[C@H](N[*:1])[C@@H](O)CCC(=O)[*:2]; Boc = CC(C)(C)OC(=O)*

Biological target: T1, human renin (Homo sapiens, UniProt P00797)
T1 construct: angiotensin-I released from human renin substrate by human resin in human plasma; from tissue; host or cells: human plasma (containing EDTA)
T1 sequence (P00797 67-406): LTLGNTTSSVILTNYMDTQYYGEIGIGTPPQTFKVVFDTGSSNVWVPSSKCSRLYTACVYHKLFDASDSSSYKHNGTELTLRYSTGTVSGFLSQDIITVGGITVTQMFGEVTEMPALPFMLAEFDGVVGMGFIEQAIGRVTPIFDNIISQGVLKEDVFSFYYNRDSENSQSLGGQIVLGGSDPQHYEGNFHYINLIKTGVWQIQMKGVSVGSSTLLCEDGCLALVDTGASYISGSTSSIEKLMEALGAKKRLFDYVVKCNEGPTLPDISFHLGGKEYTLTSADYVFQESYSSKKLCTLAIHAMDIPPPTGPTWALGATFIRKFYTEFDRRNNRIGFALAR
Assay: human renin-renin substrate reaction in vitro; radioimmunoassay of angiotensin-I released in human plasma
Format: biochemical
Conditions: Table 2; read-out: IC50 μM v/s human renin
Excerpt: Preliminary activity test results in the human […] substrate reaction in vitro are given, with comparative figures for the tetrapeptide analogue (III). […] The test results given herein are based on the methods described by J. A. Miller et al in Clinica Chimica Acta (1980) 101 5-15 and K. Poulsen and J. Jorgensen in J. Clin. Endocrinol. Metab. (1974) 39 816, and is based on the measurement, by radioimmunoassay, of angiotensin-I released from human renin substrate by human resin in human plasma. The inhibitor is dissolved in 0.01N HCl (10 μl) and added to hmman plasma (75 μl) containing EDTA, and angiotensin-I antibody (15 μl) in 3M-Tris/HCl buffer (pH 6.9). After incubation at 37° C. for 0-120 minutes, the enzymic reaction is quenched by the addition of ice-cold 0.25M Tris/HCl buffer (pH 7.4) containing 0.01% of bovine serum albumin. 125I-labelled angiotensin-I is added, followed by equilibration at 4° C. for 48 hours. Free and bound ligand are separated by the addition of dextrancoated charcoal, and the amount of bound radio-ligand determined in a gamma counter.

Point of comparison: `CC[C@H](C)[C@H](NC(=O)[C@@H](C[C@H](O)[C@H](CC(C)C)NC(=O)[C@H](Cc1c[nH]cn1)NC(=O)[C@H](Cc1ccccc1)NC(=O)OC(C)(C)C)C(C)C)C(=O)OC` [Example L], IC50 0.005 µM. Against it:
- CC[C@H](C)[C@H](NC(=O)[C@@H](C[C@H](O)[C@@H](N)CC(C)C)C(C)C)C(=O)N[C@@H](Cc1c[nH]cn1)C(=O)N[C@@H](CCCCN)C(=O)O [Example XLI] — 2200-fold higher, 11 µM
- CC[C@H](C)[C@H](NC(=O)[C@@H](C[C@H](O)[C@@H](N)CC(C)C)C(C)C)C(=O)N[C@@H](Cc1c[nH]cn1)C(=O)O [XLIII] — 5800-fold higher, 29 µM
- CC[C@H](C)[C@H](NC(=O)[C@@H](C[C@H](O)[C@H](CC(C)C)NC(=O)[C@H](Cc1c[nH]cn1)NC(=O)[C@H](Cc1ccccc1)NC(=O)OC(C)(C)C)C(C)C)C(=O)N[C@@H](Cc1c[nH]cn1)C(=O)O [Example XLVI] (Boc-FH[X1]IH-OH) — within 1.5-fold, 0.007 µM
- CC[C@H](C)[C@H](NC(=O)CC[C@H](O)[C@H](CC(C)C)NC(=O)[C@H](Cc1c[nH]cn1)NC(=O)[C@H](Cc1ccccc1)NC(=O)OC(C)(C)C)C(=O)N[C@@H](Cc1c[nH]cn1)C(=O)O [Example XLVIII] (Boc-FH[X4]IH-OH) — 60-fold higher, 0.3 µM
- CC[C@H](C)[C@H](NC(=O)[C@@H](C[C@H](O)[C@H](CC(C)C)NC(=O)[C@H](Cc1c[nH]cn1)NC(=O)[C@H](Cc1ccccc1)NC(=O)OC(C)(C)C)C(C)C)C(=O)N[C@@H](Cc1ccccc1)C(=O)OC [XLIX] (Boc-FH[X1]IF-OMe) — 3.6-fold higher, 0.018 µM

Same assay, conditions: Table 5; human renin-renin substrate reaction in vitro; read-out: IC50

Point of comparison: “HPFHLVIH [corresponding nonisosteric peptide, reference compound]”, IC50 400 µM. Against it:
- CC(C)C[C@@H](CN[C@@H](CC(C)C)C(=O)N[C@H](C(=O)N[C@@H](Cc1ccc(O)cc1)C(=O)O)C(C)C)NC(=O)[C@H](Cc1c[nH]cn1)NC(=O)[C@H](Cc1ccccc1)NC(=O)[C@@H]1CCCN1C(=O)[C@@H](N)Cc1c[nH]cn1 [Example I, H-His-Pro-Phe-His-Leu-reduced-Leu-Val-Tyr-OH] — 400-fold lower, 1 µM
- CC(C)C[C@@H](CN[C@@H](CC(C)C)C(=O)N[C@H](C(=O)N[C@@H](Cc1ccc(O)cc1)C(=O)O)C(C)C)NC(=O)[C@H](Cc1c[nH]cn1)NC(=O)[C@H](Cc1ccccc1)NC(=O)[C@@H]1CCCN1 [Example II, H-Pro-Phe-His-Leu-reduced-Leu-Val-Tyr-OH] — 24-fold lower, 17 µM
- CC[C@H](C)[C@H](NC(=O)[C@@H](NC[C@H](CC(C)C)NC(=O)[C@H](Cc1c[nH]cn1)NC(=O)[C@H](Cc1ccccc1)NC(=O)[C@@H]1CCCN1C(=O)[C@@H](N)Cc1c[nH]cn1)C(C)C)C(=O)N[C@@H](Cc1ccc(O)cc1)C(=O)O [Example X] — 2000-fold lower, 0.2 µM
- CC[C@H](C)[C@H](NC(=O)[C@@H](NC[C@H](CC(C)C)NC(=O)[C@H](Cc1c[nH]cn1)NC(=O)[C@H](Cc1ccccc1)NC(=O)[C@@H]1CCCN1C(=O)[C@@H](N)Cc1c[nH]cn1)C(C)C)C(=O)N[C@@H](Cc1c[nH]cn1)C(=O)O [Example V, H-His-Pro-Phe-His-Leu-reduced-Val-Ile-His-OH] (H-HPFH-{Leuψ(CH2NH)ValIleHisOH}) — 1500-fold lower, 0.26 µM
- CC(C)C[C@@H](CN[C@@H](Cc1ccccc1)C(=O)N[C@H](C(=O)N[C@@H](Cc1ccc(O)cc1)C(=O)O)C(C)C)NC(=O)[C@H](Cc1c[nH]cn1)NC(=O)[C@H](Cc1ccccc1)NC(=O)[C@@H]1CCCN1C(=O)[C@@H](N)Cc1c[nH]cn1 [Example IX] — 160-fold lower, 2.5 µM
- CC(C)C[C@@H](CN[C@@H](CC(C)C)C(=O)N[C@H](C(=O)N[C@@H](Cc1ccc(O)cc1)C(=O)O)C(C)C)NC(=O)[C@H](Cc1c[nH]cn1)NC(=O)[C@H](Cc1ccccc1)NC(=O)[C@@H]1CCCN1C(=O)[C@H](N)Cc1c[nH]cn1 [Example IV, H-DHis-Pro-Phe-His-Leu-reduced-Leu-Val-Tyr-OH] — 400-fold lower, 1 µM
- CC(C)[C@H](NC(=O)[C@H](Cc1ccccc1)NC[C@H](Cc1ccccc1)NC(=O)[C@H](Cc1c[nH]cn1)NC(=O)[C@H](Cc1ccccc1)NC(=O)[C@@H]1CCCN1C(=O)[C@@H](N)Cc1c[nH]cn1)C(=O)N[C@@H](Cc1ccc(O)cc1)C(=O)O [Example VIII] — 310-fold lower, 1.3 µM
- CC(C)[C@H](NC(=O)[C@H](Cc1ccccc1)NC[C@H](Cc1ccccc1)NC(=O)[C@H](Cc1c[nH]cn1)NC(=O)[C@H](Cc1ccccc1)NC(=O)[C@@H]1CCCN1C(=O)[C@H](Cc1c[nH]cn1)NC(=O)[C@@H]1CCCN1)C(=O)N[C@@H](Cc1ccc(O)cc1)C(=O)N[C@@H](CCCCN)C(=O)O [Example XI] — 8000-fold lower, 0.05 µM
- CC(C)C[C@@H](CN[C@H](C(=O)N[C@H](C(=O)N[C@@H](Cc1ccc(O)cc1)C(=O)O)C(C)C)C(C)C)NC(=O)[C@H](Cc1c[nH]cn1)NC(=O)[C@H](Cc1ccccc1)NC(=O)[C@@H]1CCCN1C(=O)[C@@H](N)Cc1c[nH]cn1 [Example XII] — 270-fold lower, 1.5 µM

Same assay, conditions: Table I; human renin in human plasma; read-out: IC50, μM human

Point of comparison: `CC[C@H](C)[C@H](NC(=O)[C@@H](NC[C@H](CC(C)C)NC(=O)[C@H](Cc1c[nH]cn1)NC(=O)[C@H](Cc1ccccc1)NC(=O)[C@@H]1CCCN1C(=O)[C@@H](N)Cc1c[nH]cn1)C(C)C)C(=O)N[C@@H](Cc1c[nH]cn1)C(=O)N[C@@H](CCCCN)C(=O)O` [XXXI], IC50 0.06 µM. Against it:
- CC[C@H](C)[C@H](NC(=O)[C@@H](NC[C@H](CC(C)C)NC(=O)[C@H](Cc1c[nH]cn1)NC(=O)[C@H](Cc1ccccc1)NC(=O)[C@@H]1CCCN1C(=O)[C@H](Cc1c[nH]cn1)NC(=O)[C@@H]1CCCN1)C(C)C)C(=O)N[C@@H](Cc1ccc(O)cc1)C(=O)O [XXX] (H-PHPFH-X3) — within 1.5-fold, 0.048 µM
- CC[C@H](C)[C@H](NC(=O)[C@@H](NC[C@H](CC(C)C)NC(=O)[C@H](Cc1c[nH]cn1)NC(=O)[C@H](Cc1ccccc1)NC(=O)[C@@H]1CCCN1C(=O)[C@@H](Cc1c[nH]cn1)NC(=O)[C@@H]1CCCN1)C(C)C)C(=O)N[C@@H](Cc1c[nH]cn1)C(=O)N[C@H](CCCCN)C(=O)O [Example XL] — 3.3-fold higher, 0.2 µM
- CC[C@H](C)[C@H](NC(=O)[C@@H](NC[C@H](CC(C)C)NC(=O)[C@H](Cc1c[nH]cn1)NC(=O)[C@H](Cc1ccccc1)NC(=O)[C@@H]1CCCN1C(=O)[C@@H](N)CCCNC(=N)N)C(C)C)C(=O)N[C@@H](Cc1ccc(O)cc1)C(=O)O [XXIV] — 9.2-fold higher, 0.55 µM
- CC(C)C[C@@H](CN[C@H](C(=O)N[C@@H](Cc1c[nH]cn1)C(=O)NCCCCCN)C(C)C)NC(=O)[C@H](Cc1c[nH]cn1)NC(=O)[C@H](Cc1ccccc1)NC(=O)[C@@H]1CCCN1C(=O)[C@H](Cc1c[nH]cn1)NC(=O)[C@@H]1CCCN1 [XVIII] (H-PHPFH-X5) — 50-fold higher, 3 µM
- CC[C@H](C)[C@H](NC(=O)[C@@H](NC[C@H](CC(C)C)NC(=O)[C@H](Cc1c[nH]cn1)NC(=O)[C@H](Cc1ccccc1)NC(=O)[C@@H]1CCCN1C(C)=O)C(C)C)C(=O)N[C@@H](Cc1c[nH]cn1)C(=O)N[C@H](CCCCN)C(=O)O [XXXVII] — 10-fold higher, 0.6 µM
- CC[C@H](C)[C@H](NC(=O)[C@@H](NC[C@H](CC(C)C)NC(=O)[C@H](Cc1c[nH]cn1)NC(=O)[C@H](Cc1ccccc1)NC(=O)[C@@H]1CCCN1C(=O)[C@H](Cc1c[nH]cn1)NC(=O)[C@@H]1CCCN1)C(C)C)C(=O)N[C@@H](Cc1c[nH]cn1)C(=O)N[C@H](CCCCN)C(=O)O [XXXVIII] — 1.7-fold higher, 0.1 µM
- CC[C@H](C)[C@H](NC(=O)[C@@H](NC[C@H](CC(C)C)NC(=O)[C@H](Cc1c[nH]cn1)NC(=O)[C@H](Cc1ccccc1)NC(=O)[C@H]1CCCN1C(=O)[C@@H](N)Cc1c[nH]cn1)C(C)C)C(=O)N[C@@H](Cc1c[nH]cn1)C(=O)O [XXXII] (H-H[dP]FH-{Leuψ(CH2NH)ValIleHisOH}) — 92-fold higher, 5.5 µM
- CC[C@H](C)[C@H](NC(=O)[C@@H](NC[C@H](CC(C)C)NC(=O)[C@H](Cc1c[nH]cn1)NC(=O)[C@H](Cc1ccccc1)NC(=O)[C@@H]1CCCN1C(=O)[C@H](Cc1c[nH]cn1)NC(=O)[C@@H]1CCCN1)C(C)C)C(=O)N[C@@H](Cc1c[nH]cn1)C(=O)N[C@@H](CCCCN)C(=O)O [XIX] — 7.5-fold lower, 0.008 µM
- CC(C)C[C@@H](CN[C@H](C(=O)N[C@@H](Cc1c[nH]cn1)C(=O)NCCCN)C(C)C)NC(=O)[C@H](Cc1c[nH]cn1)NC(=O)[C@H](Cc1ccccc1)NC(=O)[C@@H]1CCCN1C(=O)[C@H](Cc1c[nH]cn1)NC(=O)[C@@H]1CCCN1 [XVII] (H-PHPFH-X2) — 75-fold higher, 4.5 µM
- CC[C@H](C)[C@H](NC(=O)[C@@H](NC[C@H](CC(C)C)NC(=O)[C@H](Cc1c[nH]cn1)NC(=O)[C@H](Cc1ccccc1)NC(=O)[C@@H]1CCCN1C(=O)[C@H](Cc1c[nH]cn1)NC(=O)[C@@H]1CCCN1)C(C)C)C(=O)N[C@@H](Cc1ccc(O)cc1)C(=O)NCCCCCN [XX] — 50-fold higher, 3 µM
- CC[C@H](C)[C@H](NC(=O)[C@@H](NC[C@H](CC(C)C)NC(=O)[C@H](Cc1c[nH]cn1)NC(=O)[C@H](Cc1ccccc1)NC(=O)[C@@H]1CCCN1C(=O)[C@@H](N)Cc1c[nH]cn1)C(C)C)C(=O)N[C@@H](Cc1c[nH]cn1)C(=O)N[C@H](CCCCN)C(=O)O [XXI] — within 1.5-fold, 0.05 µM
- CC[C@H](C)[C@H](NC(=O)[C@@H](NC[C@H](CC(C)C)NC(=O)[C@H](Cc1c[nH]cn1)NC(=O)[C@H](Cc1ccccc1)NC(=O)[C@@H]1CCCN1C(=O)[C@@H](N)Cc1c[nH]cn1)C(C)C)C(=O)N[C@H](Cc1ccc(O)cc1)C(=O)O [XVI] — 17-fold higher, 1 µM
